In brackets after ≈: the same amount, converted by molar mass.
What was measured:
[1] = test system: Staphylococcus aureus; experiment: Antibacterial activity against Staphylococcus aureus ATCC 29213 assessed as inhibition of bacterial growth incubated for 24 hrs by broth dilution method; type: functional
[2] = test system: Staphylococcus aureus; experiment: Antibacterial activity against methicillin-resistant Staphylococcus aureus N315 assessed as inhibition of bacterial growth incubated for 24 hrs by broth dilution method; type: functional
[3] = test system: Staphylococcus aureus; experiment: Antibacterial activity against methicillin-resistant Staphylococcus aureus NCTC 10442 assessed as inhibition of bacterial growth incubated for 24 hrs by broth dilution method; type: functional
[4] = test system: Escherichia coli; experiment: Antibacterial activity against Escherichia coli ATCC 25922 assessed as inhibition of bacterial growth incubated for 24 hrs by broth dilution method; type: functional
[5] = test system: Acinetobacter baumannii; experiment: Antibacterial activity against Acinetobacter baumannii ATCC 17978 assessed as inhibition of bacterial growth incubated for 24 hrs by broth dilution method; type: functional
[6] = test system: Acinetobacter baumannii; experiment: Antibacterial activity against Acinetobacter baumannii R2889 assessed as inhibition of bacterial growth incubated for 24 hrs by broth dilution method; type: functional
[7] = test system: Klebsiella pneumoniae; experiment: Antibacterial activity against Klebsiella pneumoniae ATCC 14581 assessed as inhibition of bacterial growth incubated for 24 hrs by broth dilution method; type: functional
[8] = test system: Klebsiella pneumoniae; experiment: Antibacterial activity against Klebsiella pneumoniae ATCC 10031 assessed as inhibition of bacterial growth incubated for 24 hrs by broth dilution method; type: functional
[9] = test system: Pseudomonas aeruginosa; experiment: Antibacterial activity against Pseudomonas aeruginosa ATCC 9027 assessed as inhibition of bacterial growth incubated for 24 hrs by broth dilution method; type: functional
[10] = Hemolytic activity against rabbit blood cells incubated for 1 hr relative to control; type: toxicity, cell-based, Oryctolagus cuniculus, Erythrocyte; conditions: rabbit blood cells (erythrocytes)

Row | Compound | MIC [1] [mg/L] | MIC [2] [mg/L] | MIC [3] [mg/L] | MIC [4] [mg/L] | MIC [5] [mg/L] | MIC [6] [mg/L] | MIC [7] [mg/L] | MIC [8] [mg/L] | MIC [9] [mg/L] | HC50 at 1 h [10] [µg/mL]
1 | C=C(C)[C@@H]1CCC(C)=C[C@H]1c1c(OCCCCCBr)cc(CCCCC)cc1OCCCCCBr | > 50 | > 50 | > 50 | > 50 | > 50 | > 50 | > 50 | > 50 | > 50 | > 200
2 | C=C(C)[C@@H]1CCC(C)=C[C@H]1c1c(OCC(=O)N[C@@H](CCCCN)C(=O)OC)cc(CCCCC)cc1OCC(=O)N[C@@H](CCCCN)C(=O)OC | 25 (≈ 35 µM) | 25 (≈ 35 µM) | 25 (≈ 35 µM) | 50 (≈ 69.9 µM) | 50 (≈ 69.9 µM) | 50 (≈ 69.9 µM) | > 50 | 50 (≈ 69.9 µM) | > 50 | 116
3 | C=C(C)[C@@H]1CCC(C)=C[C@H]1c1c(OCCCBr)cc(CCCCC)cc1OCCCBr | > 50 | > 50 | > 50 | > 50 | > 50 | > 50 | > 50 | > 50 | > 50 | > 200
4 | C=C(C)[C@@H]1CCC(C)=C[C@H]1c1c(OCCCCN(CCO)CCO)cc(CCCCC)cc1OCCCCN(CCO)CCO | 25 (≈ 39.5 µM) | 25 (≈ 39.5 µM) | 25 (≈ 39.5 µM) | 100 (≈ 158 µM) | > 50 | 50 (≈ 79 µM) | 50 (≈ 79 µM) | 25 (≈ 39.5 µM) | > 50 | > 200
5 | C=C(C)[C@@H]1CCC(C)=C[C@H]1c1c(OCC(=O)O)cc(CCCCC)cc1OCC(=O)O | > 50 | > 50 | > 50 | > 50 | > 50 | > 50 | > 50 | > 50 | > 50 | > 200
6 | C=C(C)[C@@H]1CCC(C)=C[C@H]1c1c(OCCCCCCCCCCN)cc(CCCCC)cc1OCCCCCCCCCCN | > 50 | > 50 | > 50 | > 50 | > 50 | > 50 | > 50 | > 50 | > 50 | > 200
7 | C=C(C)[C@@H]1CCC(C)=C[C@H]1c1c(O)cc(CCCCC)cc1O [CANNABIDIOL] | 3.12 (≈ 9.94 µM) | 1.56 (≈ 4.96 µM) | 3.12 (≈ 9.94 µM) | > 100 | > 50 | > 50 | > 50 | > 50 | > 50 | > 200
8 | C=C(C)[C@@H]1CCC(C)=C[C@H]1c1c(OCCCCCCCCCCNC(=N)N)cc(CCCCC)cc1OCCCCCCCCCCNC(=N)N | 50 (≈ 70.5 µM) | > 50 | 50 (≈ 70.5 µM) | > 50 | > 50 | > 50 | > 50 | > 50 | > 50 | > 200
9 | CN[C@H](CC(C)C)C(=O)N[C@H]1C(=O)N[C@@H](CC(N)=O)C(=O)N[C@H]2C(=O)N[C@H]3C(=O)N[C@H](C(=O)N[C@H](C(=O)O)c4cc(O)cc(O)c4-c4cc3ccc4O)[C@H](O)c3ccc(c(Cl)c3)Oc3cc2cc(c3O[C@@H]2O[C@H](CO)[C@@H](O)[C@H](O)[C@H]2O[C@H]2C[C@](C)(N)[C@H](O)[C@H](C)O2)Oc2ccc(cc2Cl)[C@H]1O [VANCOMYCIN] | 0.78 (≈ 0.538 µM) | 1.56 (≈ 1.08 µM) | 1.56 (≈ 1.08 µM) | > 50 | – | – | – | – | – | > 200
10 | C=C(C)[C@@H]1CCC(C)=C[C@H]1c1c(OCCCCN2CCSCC2)cc(CCCCC)cc1OCCCCN1CCSCC1 | > 50 | > 50 | > 50 | > 100 | > 50 | > 50 | > 50 | > 50 | > 50 | > 200
11 | C=C(C)[C@@H]1CCC(C)=C[C@H]1c1c(OCCCCN(CC)CC)cc(CCCCC)cc1OCCCCN(CC)CC | 6.25 (≈ 11 µM) | 6.25 (≈ 11 µM) | 12.5 (≈ 22 µM) | > 50 | > 50 | 50 (≈ 87.9 µM) | > 50 | 50 (≈ 87.9 µM) | > 50 | > 200
12 | C=C(C)[C@@H]1CCC(C)=C[C@H]1c1c(OCCCCCCN)cc(CCCCC)cc1OCCCCCCN | 1.56 (≈ 3.04 µM) | 1.56 (≈ 3.04 µM) | 0.78 (≈ 1.52 µM) | 3.12 (≈ 6.09 µM) | 3.12 (≈ 6.09 µM) | 3.12 (≈ 6.09 µM) | 0.78 (≈ 1.52 µM) | 1.56 (≈ 3.04 µM) | > 50 | 59.7
13 | C=C(C)[C@@H]1CCC(C)=C[C@H]1c1c(OCC(=O)N[C@@H](CCCNC(=N)N)C(N)=O)cc(CCCCC)cc1OCC(=O)N[C@@H](CCCNC(=N)N)C(N)=O | 12.5 (≈ 16.9 µM) | 12.5 (≈ 16.9 µM) | 12.5 (≈ 16.9 µM) | > 50 | 50 (≈ 67.5 µM) | > 50 | > 50 | > 50 | 50 (≈ 67.5 µM) | > 200
14 | C=C(C)[C@@H]1CCC(C)=C[C@H]1c1c(OCCCCN)cc(CCCCC)cc1OCCCCN | 3.12 (≈ 6.84 µM) | 3.12 (≈ 6.84 µM) | 3.12 (≈ 6.84 µM) | 3.12 (≈ 6.84 µM) | 3.12 (≈ 6.84 µM) | 3.12 (≈ 6.84 µM) | 12.5 (≈ 27.4 µM) | 6.25 (≈ 13.7 µM) | 50 (≈ 109 µM) | 141
15 | C=C(C)[C@@H]1CCC(C)=C[C@H]1c1c(OCCCCCCCCCCBr)cc(CCCCC)cc1OCCCCCCCCCCBr | > 50 | > 50 | > 50 | > 50 | > 50 | > 50 | > 50 | > 50 | > 50 | > 200
16 | C=C(C)[C@@H]1CCC(C)=C[C@H]1c1c(OCCCCN2CCCC2)cc(CCCCC)cc1OCCCCN1CCCC1 | 3.12 (≈ 5.53 µM) | 3.12 (≈ 5.53 µM) | 3.12 (≈ 5.53 µM) | 12.5 (≈ 22.1 µM) | 25 (≈ 44.3 µM) | 12.5 (≈ 22.1 µM) | 25 (≈ 44.3 µM) | 12.5 (≈ 22.1 µM) | 25 (≈ 44.3 µM) | 174
17 | C=C(C)[C@@H]1CCC(C)=C[C@H]1c1c(OCC(=O)N[C@@H](CCCNC(=N)N)C(=O)N[C@@H](CCCNC(=N)N)C(=O)OC)cc(CCCCC)cc1OCC(=O)N[C@@H](CCCNC(=N)N)C(=O)N[C@@H](CCCNC(=N)N)C(=O)OC | 1.56 (≈ 1.44 µM) | 1.56 (≈ 1.44 µM) | 1.56 (≈ 1.44 µM) | 50 (≈ 46.2 µM) | 25 (≈ 23.1 µM) | 50 (≈ 46.2 µM) | > 50 | 50 (≈ 46.2 µM) | 50 (≈ 46.2 µM) | > 200
18 | C=C(C)[C@@H]1CCC(C)=C[C@H]1c1c(OCC(=O)N[C@@H](CCCNC(=N)N)C(=O)OC)cc(CCCCC)cc1OCC(=O)N[C@@H](CCCNC(=N)N)C(=O)OC | 1.56 (≈ 2.02 µM) | 1.56 (≈ 2.02 µM) | 0.78 (≈ 1.01 µM) | 6.25 (≈ 8.11 µM) | 12.5 (≈ 16.2 µM) | 25 (≈ 32.4 µM) | 25 (≈ 32.4 µM) | 25 (≈ 32.4 µM) | 50 (≈ 64.9 µM) | > 200
19 | C=C(C)[C@@H]1CCC(C)=C[C@H]1c1c(OCC(=O)OCC)cc(CCCCC)cc1OCC(=O)OCC | > 50 | > 50 | > 50 | > 100 | > 50 | > 50 | > 50 | > 50 | > 50 | > 200
20 | C=C(C)[C@@H]1CCC(C)=C[C@H]1c1c(OCCCCCCNC(=N)N)cc(CCCCC)cc1OCCCCCCNC(=N)N | 0.78 (≈ 1.31 µM) | 1.56 (≈ 2.61 µM) | 1.56 (≈ 2.61 µM) | 12.5 (≈ 20.9 µM) | 12.5 (≈ 20.9 µM) | 12.5 (≈ 20.9 µM) | > 50 | 25 (≈ 41.9 µM) | > 50 | 72.6
21 | C=C(C)[C@@H]1CCC(C)=C[C@H]1c1c(OCCCCN(C)C)cc(CCCCC)cc1OCCCCN(C)C | 3.12 (≈ 6.09 µM) | 3.12 (≈ 6.09 µM) | 6.25 (≈ 12.2 µM) | 6.25 (≈ 12.2 µM) | 6.25 (≈ 12.2 µM) | 6.25 (≈ 12.2 µM) | 6.25 (≈ 12.2 µM) | 6.25 (≈ 12.2 µM) | 50 (≈ 97.5 µM) | 132
22 | C=C(C)[C@@H]1CCC(C)=C[C@H]1c1c(OCCCCNCCC)cc(CCCCC)cc1OCCCCNCCC | 3.12 (≈ 5.78 µM) | 3.12 (≈ 5.78 µM) | 1.56 (≈ 2.88 µM) | 25 (≈ 46.2 µM) | 12.5 (≈ 23.1 µM) | 12.5 (≈ 23.1 µM) | 25 (≈ 46.2 µM) | 12.5 (≈ 23.1 µM) | > 50 | 79.3
23 | C=C(C)[C@@H]1CCC(C)=C[C@H]1c1c(OCCCCN(C)CCCNC)cc(CCCCC)cc1OCCCCN(C)CCCNC | 1.56 (≈ 2.49 µM) | 1.56 (≈ 2.49 µM) | 1.56 (≈ 2.49 µM) | 3.12 (≈ 4.98 µM) | 1.56 (≈ 2.49 µM) | 3.12 (≈ 4.98 µM) | 3.12 (≈ 4.98 µM) | 1.56 (≈ 2.49 µM) | 3.12 (≈ 4.98 µM) | > 200
24 | C=C(C)[C@@H]1CCC(C)=C[C@H]1c1c(OCCCCNC(=N)N)cc(CCCCC)cc1OCCCCNC(=N)N | 0.78 (≈ 1.44 µM) | 0.39 (≈ 0.721 µM) | 0.78 (≈ 1.44 µM) | 0.78 (≈ 1.44 µM) | 1.56 (≈ 2.88 µM) | 0.78 (≈ 1.44 µM) | 0.78 (≈ 1.44 µM) | 1.56 (≈ 2.88 µM) | 6.25 (≈ 11.6 µM) | 98.4
25 | C=C(C)[C@@H]1CCC(C)=C[C@H]1c1c(OCCCCCN)cc(CCCCC)cc1OCCCCCN | 3.12 (≈ 6.45 µM) | 3.12 (≈ 6.45 µM) | 1.56 (≈ 3.22 µM) | 6.25 (≈ 12.9 µM) | 6.25 (≈ 12.9 µM) | 12.5 (≈ 25.8 µM) | 6.25 (≈ 12.9 µM) | 6.25 (≈ 12.9 µM) | > 50 | 65.9
26 | C=C(C)[C@@H]1CCC(C)=C[C@H]1c1c(OCCCCCCBr)cc(CCCCC)cc1OCCCCCCBr | > 50 | > 50 | > 50 | > 100 | > 50 | > 50 | > 50 | > 50 | > 50 | > 200

Source: ChEMBL document CHEMBL5543084, “Development of cannabidiol derivatives as potent broad-spectrum antibacterial agents with membrane-disruptive mechanism” (Eur J Med Chem, 2024)
